From US7291629B2, “Neurotrophin antagonist compositions” (Painceptor Pharma Corporation, priority 1996, dated 2007)

Each compound was assayed on L5/L6 Nerve Ligated rats (assay: Tactile allodynia, nerve ligation injury model (von Frey paw withdrawal threshold)). Settings: i.p.

Row | Compound | A50(95% C.L.) Allodynia- Ligated [mg/kg]
1 | CN1CC[C@]23c4c5ccc(O)c4O[C@H]2[C@@H](O)C=C[C@H]3[C@H]1C5 [Morphine, morphine, reference compound] | 7.1

Same assay, conditions: i.th

Row | Compound | A50(95% C.L.) Allodynia- Ligated [µg]
2 | CN1CC[C@]23c4c5ccc(O)c4O[C@H]2[C@@H](O)C=C[C@H]3[C@H]1C5 [Morphine, morphine, reference compound] | >100

What follows are compounds tested on L5/L6 Nerve Ligated and Sham-Operated Rats (assay: not given). Settings: i.th; L5/L6 nerve ligated rats.

Row | Compound | A50(95% C.L.) Tail Flick- Ligated [µg]
3 | CN1CC[C@]23c4c5ccc(O)c4O[C@H]2[C@@H](O)C=C[C@H]3[C@H]1C5 [Morphine, morphine, reference compound] | 2.3

Same assay, conditions: i.th; sham-operated rats

Row | Compound | A50(95% C.L.) Tail Flick- Sham [µg]
4 | CN1CC[C@]23c4c5ccc(O)c4O[C@H]2[C@@H](O)C=C[C@H]3[C@H]1C5 [Morphine, morphine, reference compound] | 1.45

These compounds were tested on p75 and trkA receptors (assay: Binding of [125I]NGF to PC12 cells in the presence and absence of BDNF). Settings: 100 uM compound, 0.5 nM 125I-NGF.
Protocol: The ability of the compounds of Formula I to antagonize NGF interaction with the p75 and trkA receptors was determined as follows.
NGF was labelled using the Lactoperoxidase labelling method (Sutter et al., J. Biol. Chem., 1979) and the labelled NGF was separated from radiolabelling agents and free iodide using a PD-10 Sephadex G-25 column.
PC12 cells were grown in RPMI with 10% heat inactivated donor horse serum and 5% fetal calf serum. Cells were harvested for binding by washing off the media with calcium-magnesium free balanced salt solution (Gey's solution) and incubated in 5 ml Gey's solution at 37° C. for 15 minutes. Cells were pelleted by centrifugation and suspended in Hepes-Krebs Ringer buffer (HKR) (10 mM Hepes pH7.35, containing 125 mM NaCl, 4.8 mM KCl, 1.3 mM CaCl2, 1.2 mM MgSO4, 1.2 mM KH2PO4, 1 mg/ml BSA and 1.0 mg/ml glucose) at a concentration of 4×10^6/ml and kept on ice. (C) NGF Binding The reaction was performed in a 96 well plate. Suspended cells (150 ul, […]) were added to ^125I-NGF (final concentration of 0.5 nM) and the competing compound of Formual I in a final volume of 300 ul of HKR buffer. The plates were incubated with shaking for 2 hr at 4° C. At the end of the incubation, 100 ul aliquots of the reaction sample were added to 400 ul microcentrifuge tubes containing 200 ul of 10% glycerol in HKR buffer. The tubes were centrifuged for 1 minute at ˜5000 rpm and the tip containing the cell pellet was cut off. Radioactivity bound to the cells was determined by measuring the ^125I-NGF associated with each pellet in a gamma counter. Specific binding is calculated as the difference between the amount of ^125I-NGF bound in the absence (total) and presence (NSB) of 50 nM unlabeled NGF. TrkA binding is determined similarly except 10 nM BDNF is added to all reactions. Table 1 summarizes the values obtained from this experiment for the inhibition of binding of NGF to P75 and TrkA by compounds of Formula I.

Row | Compound | % Inhibition at 100 uM [%]
5 | O=C1c2cccc3cccc(c23)C(=O)N1Cc1ccccn1 [N-(Pyrid-2-ylmethyl)naphthalimide] | 10
6 | O=C1c2cccc3cccc(c23)C(=O)N1c1ccccc1O [2-(2-Hydroxyphenyl)naphthalimide] | 13
7 | 3-Methyl-3-(1,3-dioxo-5-nitro(1H,3H)benz[de]isoquinolyl)butyric acid methylester | 17
8 | NN1C(=O)c2cccc3cccc(c23)C1=O [Naphthalicacid-N-aminoimide] | 27
9 | O=C1c2cccc3cccc(c23)C(=O)N1Cc1ccco1 [N-Furfuryl-1,8-naphthalimide] | 36
10 | O=C1CC2C=C(Sc3ccccc3)C=C3C=CC=CC32C(=O)N1CCc1ccccn1 (stereo not drawn) [1,3-Dioxo-6-phenylmercapto-N-(pyrid-2-ylethyl)-1,2,3,4-tetrahydro-benzo[i]isoquinoline] | 33
11 | O=C1c2cccc3cc(Br)cc(c23)C(=O)N1Cc1cccnc1 [5-Bromo-1,3-dioxo-N-methylpyrid-3-yl-1,2,3,4-tetrahydrobenzo[i]isoquinoline] | 28
12 | O=C1c2cccc3cc([N+](=O)[O-])cc(c23)C(=O)N1CC1CCCO1 (stereo not drawn) [1,3-Dioxo-N-methyltetrahydrofurfur-2-yl-5-nitro-1,2,3,4-tetrahydro[i]isoquinoline] | 18
13 | CCCCCCCCN1C(=O)c2cccc3cc([N+](=O)[O-])cc(c23)C1=O [N-Octyl-5-nitronaphthalimide] | 29
14 | CCOC(=O)CN1C(=O)c2cccc3cc([N+](=O)[O-])cc(c23)C1=O [Ethyl-5-nitro-1,3-dioxo-1H-benz[de]isoquinoline-2-3H-acetate] | 16
15 | O=C1c2cccc3cccc(c23)C(=O)N1CCc1ccccn1 [N-(Pyrid-2-ylethyl)-1,8-naphthalimide] | 35
16 | CN(C)c1ccc2c3c(cccc13)C(=O)N(c1nc3ccccc3[nH]1)C2=O [6-(N,N-Dimethylamino)-2-(benzimidazol-2-yl)naphthalimide] | 36
17 | Cc1ccc(S(=O)(=O)Nc2cc(C)c(C)cc2N2C(=O)CC3C=CC=C4C=CC=CC43C2=O)cc1 (stereo not drawn) [1,3-Dioxo-2-[4,5-dimethyl-2-(4-methylphenylsulphonamido)phenyl]-1,2,3,4-tetrahydrobenzo[i]isoquinoline] | 19
18 | O=C1c2cccc3cc([N+](=O)[O-])cc(c23)C(=O)N1CCO [N-(1,3-Dioxo-5-nitro-1,2,3,4-tetrahydrobenzo[i]isoquinoline)-aminoethanol] | 44
19 | O=C1c2cccc3cccc(c23)C(=O)N1Nc1ccccc1 [N-Anilino-1,8-naphthalimide] | 1
20 | CCCCN1C(=O)c2cccc3cc(N)cc(c23)C1=O [5-Amino-N-butylnaphthalimide] | 13
21 | O=C1c2cccc3c([N+](=O)[O-])ccc(c23)C(=O)N1CC1CCCO1 (stereo not drawn) [6-Nitro-2-(tetrahydrofuran-2-ylmethyl)naphthalimide] | 28
22 | O=C(O)CCN1C(=O)c2cccc3cc([N+](=O)[O-])cc(c23)C1=O [3-Nitro-1,8-(N-propioncarboxylate)succinamidonapthalene] | 25

Row | Compound | % Inhibition at 100 uM [%]
23 | Cc1cc(C)cc(N2C(=O)c3cccc4cccc(c34)C2=O)c1 [N-(3,5-Dimethylphenyl)-1,8-naphthalimide] | 9
24 | Naphthalicacid-N,N′-diimide | 13
25 | O=C1c2cccc3c([N+](=O)[O-])ccc(c23)C(=O)N1CCc1ccccn1 [6-Nitro-2-(pyrid-2-ylethyl)naphthalimide] | 11
26 | O=C(O)CN1C(=O)c2cccc3cc([N+](=O)[O-])cc(c23)C1=O [N-(1,3-Dioxo-5-nitro-1,2,3,4-tetrahydrobenzo[i]isoquinoline)acetic acid] | 58
27 | O=C1c2cccc3cc([N+](=O)[O-])cc(c23)C(=O)N1CCCN1CCOCC1 [1,3-Dioxo-5-nitro-n-propylmorpholino-1,2,3,4-tetrahydrobenzo[i]isoquinoline] | 11
28 | Nc1ccccc1N1C(=O)c2cccc3cccc(c23)C1=O [2-(2-Aminophenyl)naphthalimide] | 20
29 | Cc1ccc(S(=O)(=O)Nc2ccccc2N2C(=O)c3cccc4c(N(C)C)ccc(c34)C2=O)cc1 [2-{2-(4-methylphenylsulphonamido)phenyl}-6-(N,N-dimethylamino)-naphthalimide] | 29
30 | O=C1CC2C=CC=C3C=CC=CC32C(=O)N1c1nc2ccccc2[nH]1 (stereo not drawn) [2-(Benzimidaz-2-yl)-1,3-dioxo-1,2,3,4-tetrahydrobenzo[i]isoquinoline] | 23
31 | CCOc1ccc(N2C(=O)c3cccc4cc([N+](=O)[O-])cc(c34)C2=O)cc1 [N-(4-Ethoxyphenyl)-5-nitronaphthalimide] | 18
32 | O=C1c2cccc3c(Sc4ccccc4)ccc(c23)C(=O)N1CCO [N-(1,3-Dioxo-6-phenylmercapto-1,2,3,4-tetrahydrobenzo[i]isoquinoline)aminoethanol] | 3
33 | O=C1c2cccc3c([N+](=O)[O-])ccc(c23)C(=O)N1Cc1cccnc1 [6-Nitro-2-(pyrid-3-methyl)naphthalimide] | 23
34 | CN1C(=O)c2cccc3cccc(c23)C1=O [N-Methylnaphthalimide] | 11
35 | O=C1c2cccc3cc([N+](=O)[O-])cc(c23)C(=O)N1CCc1ccccn1 [1,3-Dioxo-5-nitro-N-(pyrid-2-ylethyl)-1,2,3,4-tetrahydro[i]isoquinoline] | 28
36 | O=C1c2cccc3cccc(c23)C(=O)N1CCO [N-(1,3-Dioxo-1,2,3,4-tetrahydrobenzo[i]isoquinoline)aminoethanol] | 27
37 | O=C1c2cccc3c([N+](=O)[O-])ccc(c23)C(=O)N1Cc1ccco1 [6-Nitro-2-(furfuryl)naphthalimide] | 17
38 | 3-Amino-7,4-bis(ethyl-1,3-dioxo-1,2,3,4-tetrahydrobenzo[i]isoquinoline | 23
39 | Cc1ccc(S(=O)(=O)Nc2cc(Cl)c(Cl)cc2N2C(=O)c3cccc4cccc(c34)C2=O)cc1 [2-[2-(4-Methylbenzsulphonamido)-4,5-dichlorophenyl]naphthalimide] | 26
